From US12606541B2, “PPARg modulators and methods of use” (Eisai R&D Management Co., Ltd., priority 2020, dated 2026)
pIC50: −log10 of the molar value. Like-named read-outs stand apart in the source and are kept apart here.

How the values were obtained:
His6-TEV-PPARγ-(234-505) = target: T1, His6-TEV-PPARγ-(234-505) (Homo sapiens, UniProt P37231); test: TR-FRET Assay to Measure Co-R Peptide Recruitment to PPARγ; type: biochemical; settings: Co-R peptide (SMRT-ID2) recruitment; top final concentration 20 μM; read-out: TR-FRET i-Ag; AC50
T1 construct: The His6-TEV-PPARγ-(234-505) protein for assay was expressed and purified; TEV cleavage site (N); made in house
T1 sequence (P37231 234-505): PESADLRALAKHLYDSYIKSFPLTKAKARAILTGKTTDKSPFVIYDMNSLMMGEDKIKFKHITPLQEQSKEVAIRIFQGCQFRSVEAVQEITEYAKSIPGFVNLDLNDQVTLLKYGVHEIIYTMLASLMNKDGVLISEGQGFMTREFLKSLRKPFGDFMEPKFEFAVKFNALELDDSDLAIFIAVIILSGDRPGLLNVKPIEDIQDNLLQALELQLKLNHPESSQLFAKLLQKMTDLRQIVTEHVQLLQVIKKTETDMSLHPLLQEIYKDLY
How it was run: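 His-tagged PPARγ (or controls) was preincubated with compound for 20 minutes at room temperature, then 5 nM anti-His terbium antibody and 200 nM FITC-labeled SMRT-ID2 corepressor peptide (final) were added for a further hour. TR-FRET signal was normalized to percent response using 500 nM T0070907 and DMSO controls.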

UM-UC-9 engineered cells = test: Cell proliferation / short-term viability assay, CellTiter-Glo 144 h; type: cell-based, human; settings: read-out: CTGlo 144 h UMUC9.5, G150
How it was run: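 UM-UC-9 engineered assay-ready cells seeded at 500 cells/well in high-glucose DMEM/10% FBS, treated from dose-response plates, grown at 37° C, 5% CO2. CellTiter-Glo 2.0 luminescence read on day 7, with a day-0 pretreatment plate as T0 reference and DMSO wells as negative control.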

Structure (SMILES) | AC50 (His6-TEV-PPARγ-(234-505)) | pIC50 (UM-UC-9 engineered cells; Homo sapiens, UM-UC-9, 144 h) | pIC50 (UM-UC-9 engineered cells)
CCc1cc(-c2cc(C(=O)N3CCC(C(=O)NCc4cccc(Cl)c4)CC3)n[nH]2)c(Cl)cn1 [Example 270, 1-[5-(5-chloro-2-ethylpyridin-4-yl)-1H-pyrazole-3-carbonyl]-N-[(3-chlorophenyl)methyl]piperidine-4-carboxamide] | 23.4 nM | 6.51 | 
Cc1cc(-c2cc(C(=O)N3CCC(C(=O)NCc4ccc5[nH]ccc5c4)CC3)n[nH]2)c(F)cn1 [Example 271, 1-[5-(5-fluoro-2-methylpyridin-4-yl)-1H-pyrazole-3-carbonyl]-N-(1H-indol-5-ylmethyl)piperidine-4-carboxamide] | 6.1 nM | 7.52 | 
COc1cc(-c2cc(C(=O)N3CCC(C(=O)NCc4ccc5[nH]c(C)c(C)c5c4)CC3)n[nH]2)c(F)cn1 [Example 272, N-[(2,3-dimethyl-1H-indol-5-yl)methyl]-1-[5-(5-fluoro-2-methoxypyridin-4-yl)-1H-pyrazole-3-carbonyl]piperidine-4-carboxamide] | 9 nM | 6.96 | 
COc1cc(-c2cc(C(=O)N3CC[C@@H](C(=O)NCc4cccc(Cl)c4)C[C@H]3C)n[nH]2)c(Cl)cn1 [Example 273, (2R,4R)-1-(5-(5-chloro-2-methoxypyridin-4-yl)-1H-pyrazole-3-carbonyl)-N-(3-chlorobenzyl)-2-methylpiperidine-4-carboxamide] | 26.7 nM | 6.67 | 
COc1cc(-c2cc(C(=O)N3CCC(C(=O)NC4CCC5(CCO5)CC4)CC3)n[nH]2)c(F)cn1 (stereo not drawn) [Example 276, 1-(5-(5-fluoro-2-methoxypyridin-4-yl)-1H-pyrazole-3-carbonyl)-N-(1-oxaspiro[3.5]nonan-7-yl)piperidine-4-carboxamide] | 813 nM | < 5.40 | 
COc1cc(-c2cc(C(=O)N3[C@@H]4CC[C@H]3C[C@H](C(=O)NCc3ccc5c(c3)c(F)nn5C)C4)n[nH]2)c(F)cn1 [Example 277, (1R,3s,5S)—N-((3-fluoro-1-methyl-1H-indazol-5-yl)methyl)-8-(5-(5-fluoro-2-methoxypyridin-4-yl)-1H-pyrazole-3-carbonyl)-8-azabicyclo[3.2.1]octane-3-carboxamide] | 3.3 nM | 7.54 | 
COc1cc(-c2cc(C(=O)N3CCC(C(=O)NCc4ccc5c(c4)C(C)(C)CN5)CC3)n[nH]2)c(F)cn1 [Example 278, N-((3,3-dimethylindolin-5-yl)methyl)-1-(5-(5-fluoro-2-methoxypyridin-4-yl)-1H-pyrazole-3-carbonyl)piperidine-4-carboxamide] | 75.1 nM | 6.32 | 
Cc1cc(-c2cc(C(=O)N3[C@@H]4CC[C@H]3C[C@H](C(=O)N[C@H]3CC[C@@](O)(C(F)(F)F)CC3)C4)n[nH]2)ncn1 [Example 279, (1R,3s,5S)—N-((1r,4R)-4-hydroxy-4-(trifluoromethyl)cyclohexyl)-8-(5-(6-methylpyrimidin-4-yl)-1H-pyrazole-3-carbonyl)-8-azabicyclo[3.2.1]octane-3-carboxamide] | 24.6 nM | 6.54 | 
COc1cc(-c2cc(C(=O)N3C4COCC3CC(C(=O)N[C@H]3CC[C@@](O)(C(F)(F)F)CC3)C4)n[nH]2)c(F)cn1 (stereo partly drawn) [Example 282, 9-(5-(5-fluoro-2-methoxypyridin-4-yl)-1H-pyrazole-3-carbonyl)-N-((1r,4r)-4-hydroxy-4-(trifluoromethyl)cyclohexyl)-3-oxa-9-azabicyclo[3.3.1]nonane-7-carboxamide] | 59 nM | 6.53 | 
Cc1cc(-c2cc(C(=O)N3[C@@H]4CC[C@H]3C[C@H](C(=O)N[C@H]3CC[C@@](O)(C(F)(F)F)CC3)C4)n[nH]2)c(F)cn1 [Example 283, (1R,3R,5S)-8-[5-(5-fluoro-2-methylpyridin-4-yl)-1H-pyrazole-3-carbonyl]-N-[(1r,4r)-4-hydroxy-4-(trifluoromethyl)cyclohexyl]-8-azabicyclo[3.2.1]octane-3-carboxamide] | 7.5 nM | 7.15 | 
Cc1cc(-c2cc(C(=O)N3[C@@H]4CC[C@H]3C[C@H](C(=O)NCc3ccc5[nH]nc(F)c5c3)C4)n[nH]2)c(F)cn1 [Example 284, (1R,3s,5S)—N-((3-fluoro-1H-indazol-5-yl)methyl)-8-(5-(5-fluoro-2-methylpyridin-4-yl)-1H-pyrazole-3-carbonyl)-8-azabicyclo[3.2.1]octane-3-carboxamide] | 2.3 nM | 7.92 | 
COc1cc(-c2cc(C(=O)N3[C@@H]4CC[C@H]3C[C@H](C(=O)NCc3ccc5[nH]c(C)c(C)c5c3)C4)n[nH]2)c(F)cn1 [Example 285, (1R,3R,5S)—N-[(2,3-dimethyl-1H-indol-5-yl)methyl]-8-[5-(5-fluoro-2-methoxypyridin-4-yl)-1H-pyrazole-3-carbonyl]-8-azabicyclo[3.2.1]octane-3-carboxamide] | 7.9 nM | 7.79 | 
COc1cc(-c2cc(C(=O)N3[C@@H]4CC[C@H]3C[C@H](C(=O)NC3CC[Si](C)(C)CC3)C4)n[nH]2)c(F)cn1 [Example 291, (1R,3s,5S)—N-(1,1-dimethylsilinan-4-yl)-8-(5-(5-fluoro-2-methoxypyridin-4-yl)-1H-pyrazole-3-carbonyl)-8-azabicyclo[3.2.1]octane-3-carboxamide] | 69.6 nM | 6.82 | 
COc1cc(-c2cc(C(=O)N3CCC(C(=O)N[C@@H]4CCN(c5ccccc5F)C4)CC34CC4)n[nH]2)c(F)cn1 (stereo partly drawn) [Example 296, 4-[5-(5-fluoro-2-methoxypyridin-4-yl)-1H-pyrazole-3-carbonyl]-N—[(R)-1-(2-fluorophenyl)pyrrolidin-3-yl]-4-azaspiro[2.5]octane-7-carboxamide] | 19.8 nM | 8.39 | 
Cc1cc(-c2cc(C(=O)N3CC[C@H](C(=O)NC4CCC5(CCO5)CC4)CC34CC4)n[nH]2)ncn1 (stereo partly drawn) [Example 300-B, (S)-4-(5-(6-methylpyrimidin-4-yl)-1H-pyrazole-3-carbonyl)-N-(1-oxaspiro[3.5]nonan-7-yl)-4-azaspiro[2.5]octane-7-carboxamide] | 995 nM | 5.82 | 
COc1cc(-c2nc(C(=O)N3[C@@H]4CC[C@H]3CC(C(=O)NC3CCC(O)(C(F)(F)F)CC3)C4)n[nH]2)c(F)cn1 (stereo partly drawn) [Example 305, (1R,3S,5S)-8-[5-(5-fluoro-2-methoxypyridin-4-yl)-1H-1,2,4-triazole-3-carbonyl]-N-[(1r,4r)-4-hydroxy-4-(trifluoromethyl)cyclohexyl]-8-azabicyclo[3.2.1]octane-3-carboxamide] | 217 nM |  | 5.64
Cc1cc(-c2c[nH]c(C(=O)N3CCC(C(=O)N[C@H]4CC[C@@](O)(C(F)(F)F)CC4)CC34CC4)n2)c(O)cn1 (stereo partly drawn) [Example 310, 4-(4-(5-hydroxy-2-methylpyridin-4-yl)-1H-imidazole-2-carbonyl)-N-((1r,4r)-4-hydroxy-4-(trifluoromethyl)cyclohexyl)-4-azaspiro[2.5]octane-7-carboxamide] | 14 nM | 7.00 | 
Cc1nccc(-c2cc(C(=O)N3[C@@H]4CC[C@H]3C[C@H](C(=O)N[C@H]3CC[C@@](O)(C(F)(F)F)CC3)C4)n[nH]2)c1C [Example 314, (1R,3s,5S)-8-(5-(2,3-dimethylpyridin-4-yl)-1H-pyrazole-3-carbonyl)-N-((1r,4R)-4-hydroxy-4-(trifluoromethyl)cyclohexyl)-8-azabicyclo[3.2.1]octane-3-carboxamide] | 347 nM | < 5.00 | 
